Data from ChEMBL document CHEMBL1201862, “PubChem BioAssay data set” (2004).
Where “and” joins values, the source holds several entries; their conditions need not be identical. Equal values may be shown once. Calls of active or inactive are those of the source.

What was measured:
[1] = Dd2 parasite growth inhibition in erythrocytes – SYBR Green, dry powder samples, set 9, dose response (AID 1159568); type: functional, cell-based
[2] = liver cell line viability loss – HepG2, luminescence plate reader, powder samples, set 2, cytotoxicity control, dose response (AID 651860); type: functional, cell-based
[3] = biological target: COUP transcription factor 2 (Homo sapiens, UniProt P24468); experiment: Luminescence-based cell-based high throughput dose response assay to identify inhibitors of COUP-TFII (NR2F2).; type: functional;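 further: HEK293 cells transiently cotransfected with COUP-TFII expression vector and reporter; luciferase reporter luminescence driven by COUP-TFII from the pX2-168 reporter plasmid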
Sequence of COUP transcription factor 2 (P24468 whole entry): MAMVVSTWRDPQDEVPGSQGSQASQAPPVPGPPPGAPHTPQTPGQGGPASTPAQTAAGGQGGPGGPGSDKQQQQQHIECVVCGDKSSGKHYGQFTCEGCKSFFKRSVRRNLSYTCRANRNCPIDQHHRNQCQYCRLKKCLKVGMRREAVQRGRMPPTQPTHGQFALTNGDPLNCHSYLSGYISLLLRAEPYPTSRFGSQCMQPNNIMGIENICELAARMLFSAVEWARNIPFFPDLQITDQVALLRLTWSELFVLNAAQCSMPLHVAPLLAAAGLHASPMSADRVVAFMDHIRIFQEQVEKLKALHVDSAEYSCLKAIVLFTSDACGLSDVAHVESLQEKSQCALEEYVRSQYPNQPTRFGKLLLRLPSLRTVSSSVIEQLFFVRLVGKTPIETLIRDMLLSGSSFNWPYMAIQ

[4] = viability loss in A549 lung cancer cells – cell-based, cherry-picks, […], cytotoxicity control, dose response (AID 1053119); type: functional
[5] = inhibitors of EBV LMP1 NF-kappaB signaling – cell-based, luciferase reporter, luminescence, dry powder, set 2, dose response (AID 624376); type: functional
[6] = viability loss in HEK293 kidney cells – cell-based, cherry-picks, set 5, cytotoxicity control, dose response (AID 1053117); type: functional
[7] = biological target: 1-phosphatidylinositol 4,5-bisphosphate phosphodiesterase gamma-1 (Homo sapiens, UniProt P19174); experiment: Counterscreen for inhibitors of phospholipase C isozymes (PLC-B3): Fluorescence-based biochemical high throughput dose response assay to identify inhibitors of phospholipase C isozymes (PLC-gamma1).
Sequence of 1-phosphatidylinositol 4,5-bisphosphate phosphodiesterase gamma-1 (P19174 whole entry): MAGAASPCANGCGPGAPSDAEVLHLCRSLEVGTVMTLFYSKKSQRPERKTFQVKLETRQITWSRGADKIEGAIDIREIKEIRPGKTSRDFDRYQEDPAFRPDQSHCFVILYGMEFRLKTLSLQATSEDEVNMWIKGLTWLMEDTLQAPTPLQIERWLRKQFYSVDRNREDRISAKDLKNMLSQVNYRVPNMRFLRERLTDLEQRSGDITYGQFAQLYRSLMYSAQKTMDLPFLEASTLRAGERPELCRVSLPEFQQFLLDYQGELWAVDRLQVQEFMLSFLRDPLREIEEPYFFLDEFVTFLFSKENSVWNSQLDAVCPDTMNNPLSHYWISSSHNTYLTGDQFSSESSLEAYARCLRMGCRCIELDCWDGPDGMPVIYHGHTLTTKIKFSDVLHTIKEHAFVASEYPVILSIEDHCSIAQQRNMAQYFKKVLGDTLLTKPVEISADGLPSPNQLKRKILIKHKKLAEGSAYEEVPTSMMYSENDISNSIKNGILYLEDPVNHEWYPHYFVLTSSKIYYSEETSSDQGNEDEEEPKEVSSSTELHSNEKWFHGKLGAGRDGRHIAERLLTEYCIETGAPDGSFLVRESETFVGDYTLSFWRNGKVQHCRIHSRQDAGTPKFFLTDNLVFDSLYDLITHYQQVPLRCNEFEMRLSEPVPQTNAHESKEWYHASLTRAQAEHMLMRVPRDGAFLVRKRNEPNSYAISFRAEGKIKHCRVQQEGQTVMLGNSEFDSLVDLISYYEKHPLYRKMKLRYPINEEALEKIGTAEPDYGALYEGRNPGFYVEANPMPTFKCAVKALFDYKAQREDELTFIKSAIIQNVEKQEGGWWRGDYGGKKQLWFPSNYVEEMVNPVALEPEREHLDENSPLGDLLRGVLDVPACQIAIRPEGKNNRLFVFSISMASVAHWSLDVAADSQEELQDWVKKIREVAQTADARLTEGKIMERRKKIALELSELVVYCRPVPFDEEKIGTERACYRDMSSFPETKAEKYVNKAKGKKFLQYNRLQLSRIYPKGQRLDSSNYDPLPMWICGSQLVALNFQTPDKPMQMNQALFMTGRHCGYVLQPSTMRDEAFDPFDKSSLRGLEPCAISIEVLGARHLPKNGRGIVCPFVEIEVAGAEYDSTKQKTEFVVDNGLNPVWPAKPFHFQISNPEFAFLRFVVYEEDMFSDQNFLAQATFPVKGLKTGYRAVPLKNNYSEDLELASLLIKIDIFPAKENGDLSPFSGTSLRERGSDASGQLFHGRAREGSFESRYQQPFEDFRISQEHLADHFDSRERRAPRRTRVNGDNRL

[8] = biological target: 1-phosphatidylinositol 4,5-bisphosphate phosphodiesterase beta-3 (Homo sapiens, UniProt Q01970); experiment: Fluorescence-based biochemical high throughput dose response assay to identify inhibitors of phospholipase C isozymes (PLC-B3).
[9] = viability loss in Vero cells – cytotoxicity control for Vif-APOBEC3G degradation inhibitor project, dose response (AID 1117358); type: functional; settings: Vero
[10] = COV434 cell viability loss – plate reader, dry powder, SA7, cytotoxicity control for PAX8 inhibitor project, dose response (AID 743145); type: functional, cell-based
[11] = toxicity toward immortalized ovarian surface epithelium – cell-based, plate reader, dry powder samples, cytotoxicity control for PAX8 inhibitor project, dose response (AID 743045); type: functional
Paired box protein Pax-8 = Paired box protein Pax-8 (Homo sapiens, UniProt Q06710); experiment: PAX8 transcriptional activity inhibition in RMG-I – RMG-I cells, luciferase, cherry-pick, dose response (AID 687027); type: functional, cell-based;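 further: luciferase reporter driven by Pax8 target thyroperoxidase promoter measured by SteadyGlo luminescence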
Sequence of Paired box protein Pax-8 (Q06710 whole entry): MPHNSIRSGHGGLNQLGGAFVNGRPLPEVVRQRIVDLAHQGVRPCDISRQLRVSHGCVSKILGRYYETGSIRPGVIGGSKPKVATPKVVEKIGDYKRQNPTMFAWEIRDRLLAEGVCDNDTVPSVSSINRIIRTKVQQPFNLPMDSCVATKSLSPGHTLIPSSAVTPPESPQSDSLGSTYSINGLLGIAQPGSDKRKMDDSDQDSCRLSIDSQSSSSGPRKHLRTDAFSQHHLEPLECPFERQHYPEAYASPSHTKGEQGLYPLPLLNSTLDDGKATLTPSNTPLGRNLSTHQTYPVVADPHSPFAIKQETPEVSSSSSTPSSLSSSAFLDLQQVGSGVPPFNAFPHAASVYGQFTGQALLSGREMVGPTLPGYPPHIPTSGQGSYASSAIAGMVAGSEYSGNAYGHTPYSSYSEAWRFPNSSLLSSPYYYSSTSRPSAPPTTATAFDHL

[12] = OV-90 cell viability loss – plate reader, dry powder, SA8, PAX8 inhibitor project, dose response (AID 743149); type: functional, cell-based
[13] = PAX8-dependent cell viability loss – plate reader, dry powder, dose response (AID 743049); type: functional, cell-based
[14] = T. cruzi growth inhibition in host cells, dose response, cell-based, plate reader, dry powder, set 2 (AID 652275); type: functional
[15] = mouse embryonic fibroblast toxicity – cell-based, plate reader, dry powder, set 2, cytotoxicity control, dose response (AID 652280); type: functional; settings: NIH3T3
[16] = biological target: NACHT, LRR and PYD domains-containing protein 1 (Homo sapiens, UniProt Q9C000); experiment: NALP1 inhibitors in yeast, dose response, luminescent (AID 488860); type: functional
Sequence of NACHT, LRR and PYD domains-containing protein 1 (Q9C000 1-1212 limits assumed): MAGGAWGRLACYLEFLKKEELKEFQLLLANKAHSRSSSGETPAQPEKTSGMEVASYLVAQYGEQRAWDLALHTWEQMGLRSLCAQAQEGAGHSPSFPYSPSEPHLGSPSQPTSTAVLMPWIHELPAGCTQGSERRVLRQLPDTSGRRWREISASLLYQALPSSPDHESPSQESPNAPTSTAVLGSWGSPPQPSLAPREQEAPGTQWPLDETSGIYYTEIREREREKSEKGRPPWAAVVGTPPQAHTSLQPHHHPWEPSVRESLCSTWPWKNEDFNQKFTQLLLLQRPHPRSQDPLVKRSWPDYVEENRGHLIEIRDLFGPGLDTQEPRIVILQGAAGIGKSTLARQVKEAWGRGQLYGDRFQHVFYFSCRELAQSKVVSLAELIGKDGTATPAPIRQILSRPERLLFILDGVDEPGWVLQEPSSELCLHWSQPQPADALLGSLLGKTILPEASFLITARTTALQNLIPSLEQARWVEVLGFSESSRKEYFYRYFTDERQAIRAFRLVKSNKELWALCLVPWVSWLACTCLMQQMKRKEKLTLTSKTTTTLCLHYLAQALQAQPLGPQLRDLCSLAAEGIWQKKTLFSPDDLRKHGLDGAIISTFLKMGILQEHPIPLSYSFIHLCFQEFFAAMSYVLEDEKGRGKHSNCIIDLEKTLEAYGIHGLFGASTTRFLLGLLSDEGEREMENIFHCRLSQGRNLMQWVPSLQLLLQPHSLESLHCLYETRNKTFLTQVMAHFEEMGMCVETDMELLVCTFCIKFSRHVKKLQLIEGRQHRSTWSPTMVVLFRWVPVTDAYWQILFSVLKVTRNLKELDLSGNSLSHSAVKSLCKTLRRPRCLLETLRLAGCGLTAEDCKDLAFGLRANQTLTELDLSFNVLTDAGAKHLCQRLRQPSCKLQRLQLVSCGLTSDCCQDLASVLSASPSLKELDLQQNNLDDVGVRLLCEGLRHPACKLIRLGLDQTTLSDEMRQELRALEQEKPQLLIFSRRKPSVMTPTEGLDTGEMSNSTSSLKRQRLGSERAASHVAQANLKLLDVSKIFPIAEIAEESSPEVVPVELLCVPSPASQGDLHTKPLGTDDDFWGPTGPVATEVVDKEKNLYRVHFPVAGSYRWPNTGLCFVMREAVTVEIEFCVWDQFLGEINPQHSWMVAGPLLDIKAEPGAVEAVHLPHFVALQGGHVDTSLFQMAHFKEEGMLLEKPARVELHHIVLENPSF
Sequence of NACHT, LRR and PYD domains-containing protein 1 (Q9C000 1213-1473 limits assumed): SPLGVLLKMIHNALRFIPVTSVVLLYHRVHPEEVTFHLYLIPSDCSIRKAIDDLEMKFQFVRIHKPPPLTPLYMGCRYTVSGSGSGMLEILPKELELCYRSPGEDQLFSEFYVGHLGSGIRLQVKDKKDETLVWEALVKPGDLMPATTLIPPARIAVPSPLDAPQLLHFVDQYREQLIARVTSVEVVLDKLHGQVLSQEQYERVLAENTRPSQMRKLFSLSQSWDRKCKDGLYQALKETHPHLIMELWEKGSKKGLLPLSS

[17] = HIV-1 Vif–A3G interaction blockers – biochemical, TR-FRET, GST-Vif 1-94, biotin-A3G peptide, dose response retest, primary screen (AID 1117319); type: functional;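 further: TR-FRET signal of purified GST-Vif binding a biotinylated A3G peptide; inhibitors lower the FRET signal by blocking Vif and A3G binding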
Saccharomyces cerevisiae = experiment: S. cerevisiae Caspase-1/ASC signal blockers IC50, NALP1 inhibitor project selectivity test (AID 488863); type: functional, organism-based
[18] = biological target: G-protein coupled receptor 183 (Homo sapiens, UniProt P32249); experiment: SAR confirmation of small molecule antagonists of the EBI2 receptor via a luminescent beta-arrestin assa.; type: functional
Sequence of G-protein coupled receptor 183 (P32249 whole entry): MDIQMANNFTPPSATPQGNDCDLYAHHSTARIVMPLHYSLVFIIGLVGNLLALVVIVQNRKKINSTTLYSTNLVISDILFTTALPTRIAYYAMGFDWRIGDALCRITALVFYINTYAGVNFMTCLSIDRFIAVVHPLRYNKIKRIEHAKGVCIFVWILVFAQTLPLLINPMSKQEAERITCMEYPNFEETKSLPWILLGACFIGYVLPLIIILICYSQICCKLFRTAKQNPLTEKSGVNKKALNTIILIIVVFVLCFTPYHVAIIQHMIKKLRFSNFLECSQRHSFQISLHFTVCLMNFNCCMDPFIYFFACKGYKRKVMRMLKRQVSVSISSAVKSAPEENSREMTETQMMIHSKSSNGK

[19] = biological target: Heat shock protein HSP 90-alpha (Homo sapiens, UniProt P07900); experiment: Luminescence-based dose response biochemical high throughput screening assay for inhibitors of the Heat Shock Protein 90 (HSP90). [Related pubchem assays: 1831 (Summary AID.), 1846 (Confirmation screen.), 1789 (Primary screen.)]
Vero = experiment: cells; type: functional; settings: Chlorocebus sabaeus
[20] = Late stage assay provider results from the probe development effort to identify selective inhibitors of heat shock protein 90 (HSP90): Absorbance-based cell proliferation assay in MCF7 cells.; type: functional
[21] = Late stage assay provider results from the probe development effort to identify selective inhibitors of heat shock protein 90 (HSP90): Absorbance-based cell proliferation assay in SKBR3 cells.; type: functional; settings: SK-BR-3
[22] = PAX5 cellular inhibition readout – cell-based, plate reader, dry powder samples, selectivity assay for PAX8 inhibitor project, dose response (AID 743047); type: functional;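 further: HEK293 cells carrying a Pax5 driven CD19 promoter luciferase reporter; potency of inhibitors that lower reporter luminescence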

For `CC(C)CC#Cc1ccc([C@@H]2[C@H]3CN(C(=O)Nc4ccccc4)CCCCN3[C@H]2CO)cc1`, the AC50 [1] was 2.67 µM (active).

With `O=C(O)C1CCCCC1C(=O)Nc1ccccc1CN1C(=O)c2ccccc2C1=O` (centres undefined) the AC50 [2] was > 52 µM (inactive).

For `Cc1cc(C)c(O)c(C(=O)CC2CC(=O)NC(=O)C2)c1`, the IC50 [3] was 9.88 µM (active).

In the case of `CC(C)(C)[S@@+]([O-])N1Cc2cc(C(=O)NCc3ccccc3F)nc(-c3cccc(-c4ccncc4)c3)c2[C@H]1CCO`, the AC50 [4] was 32.2 µM (active), the AbsAC35 [5] was 50.48 µM and the AC50 [6] was > 52 µM (inactive).

With `O=S(=O)(c1ccccc1)c1cnn(-c2ccccc2)c1-c1ccc(Cl)cc1` the IC50 [7] was > 122 µM (inactive) and the IC50 [8] was > 122 µM (inactive).

For `N=c1sccn1CC(=O)Nc1ccc2c(c1)CCC2`, the CC50 [9] was > 40 µM (active).

In the case of `CC1(C)CC(=O)c2sc(NC(=O)CCS(=O)(=O)c3ccccc3)nc2C1`, the AC50 [10] was 22.9 µM (active), the AC50 [11] was 69.9 µM (active) and the AC50 (Paired box protein Pax-8) was 3.16 µM (active). The AC50 [12] was 86.7 µM (active) and the AC50 [13] was 11.9 µM (active).

In the case of `CC(C)N1C[C@@H](C)[C@H](CN(C)Cc2ccc(Oc3ccccc3)cc2)Oc2c(C(=O)Nc3ccncc3)cccc2C1=O`, the AC50 [14] was 40.5 nM (active) and 71.6 nM (active) and the AC50 [15] was 6.05 µM (active).

For `Cc1sc(-c2ccncc2)nc1OC(=O)c1ccccc1`, the IC50 [16] was 23.1 µM (active), the IC50 [17] was > 100 µM (active) and the IC50 (Saccharomyces cerevisiae) was 56.9 µM (active).

With `O=C(/C=C/c1ccc(Br)cc1)N1CCN(Cc2ccc(Cl)c(Cl)c2)CC1` the IC50 [18] was 0.00172 µM (active).

For `Cc1cc(NC(=O)c2coc(=O)c(Br)c2)ccc1C(C)C`, the IC50 [19] was 0.685 µM (active), the CC50 (Vero) was > 25 µM (active) and the IC50 [20] was 8.9 µM (active). For the same molecule, the IC50 [21] was 18.8 µM (inactive).

With `N#C[C@@H]1[C@@H](c2ccc(-c3cccc(F)c3)cc2)[C@H](CO)N1C(=O)NC1CCCC1` the AC50 [22] was 55.5 µM (active), the AC50 [10] was 65.3 µM (active) and the AC50 (Paired box protein Pax-8) was 22.2 µM (active). For the same molecule, the AC50 [12] was > 70 µM (inactive) and the AC50 [13] was 39.6 µM (active).
